The text below walks through data of article PMC10748125 (Viruses, 2023).

Series [1] in a line: Cytotoxicity assay (CCK-8), HCT-8. Type of series: cell-based. The settings on record: human, HCT-8 cells; CCK-8, 48 h treatment.
The subject of series [2] is HCoV-NL63. Nature of the series: Viral yield reduction (VYR) assay, HCoV-NL63 in Caco-2 cells. The settings on record: read-out: EC50 (μM) HCoV-NL63, progeny virus 24 h post-infection, mean ± SD.
The test system of the next series is HCoV-229E. In words: Viral yield reduction (VYR) assay, HCoV-229E in MRC-5 cells. The settings on record: read-out: EC50 (μM) HCoV-229E, progeny virus 24 h post-infection, mean ± SD.
Series [3] concerns HCoV-NL63. In words: Time-of-addition assay. In kind it is cell-based.
Series [4] in a line: Cytotoxicity assay (CCK-8), NCTC clone 929. In kind it is cell-based, murine. To be noted: mouse, NCTC clone 929 cells; Figure 1C MHV plot label; read-out: NCTC clone CC50 (label inside plot).
The test system of the next series is MRC-5 cells. To be noted: human.
A short description of series [5]: Cytotoxicity assay (CCK-8), CRFK. In kind it is cell-based, feline. The settings on record: cat, CRFK cells; Figure 1C CCoV plot label; read-out: CRFK CC50 (label inside plot).
A further series has as its system HCoV-OC43. Nature of the series: Viral yield reduction (VYR) assay, HCoV-OC43 in HCT-8 cells. To be noted: read-out: EC50 (μM) HCoV-OC43, progeny virus 24 h post-infection, mean ± SD.
Series [6] is described as follows: Cytotoxicity assay (CCK-8), Caco-2. In kind it is cell-based. To be noted: human, CCK-8, 48 h treatment.
The nature of another series: in vitro. The settings on record: human.
[7] abbreviates: 2 μM VV116, 2 μM Remdesivir, 300 μg/mL heparan sulfate, MOI 0.1, 24 h post-infection.

Consider `CCC(CC)COC(=O)[C@H](C)N[P@](=O)(OC[C@H]1O[C@@](C#N)(c2ccc3c(N)ncnn23)[C@H](O)[C@@H]1O)Oc1ccccc1` [Remdesivir], for which the CC50 at 48 h in series [1], in series [4], in series [5] and in [6] was over 100 µM each time. In addition, the EC50 with HCoV-NL63 [2] came out at 0.495 ± 0.01 µM; in the series with HCoV-229E, 0.056 ± 0.002 µM; in the series on HCoV-OC43 it was 0.069 ± 0.001 µM. Further, the Time-of-addition result overall in the series with HCoV-NL63 [3] (2 μM Remdesivir, compared with VV116) was “comparable to that obtained for VV116”. The CC50 in the series with MRC-5 cells and in the series “in vitro” was over 100 µM in each case.

As to heparan sulfate, in the series with HCoV-NL63 [3] (setting [7]), the “Antiviral activity when added at the post-entry phase (NP Western blot)” value was “abolished” and the “Antiviral activity when added during the entry phase (NP Western blot)” value is on record as “demonstrated antiviral activity”.

As usually defined, the EC50 is the concentration at which the effect is half-maximal.
